Measurements: article PMC4906375, “Contribution of Amphipathicity and Hydrophobicity to the Antimicrobial Activity and Cytotoxicity of β-Hairpin Peptides” (ACS Infectious Diseases, 2016)
In brackets after ≈: the same amount, converted by molar mass. Where two headings read alike, the source gives them in different places.

Assays:
[1] = Cytotoxicity, Alamar Blue (resazurin) assay; format: cell-based, human; details: human
Method: Cytotoxicity to HEK293 and HepG2 cells was determined using the Alamar Blue (resazurin) assay,[55],[56] with 24 h of incubation and either 1 or 10% serum concentration. Full assay details are included in the Supporting Information.
Cytotoxicity. Cytotoxicity to HEK293 and HepG2 cells was determined using the Alamar Blue (resazurin) assay,3, 4 For the assays supplemented with 1 % FBS as final concentration the cells were seeded one day prior to the assay (3,000 per 20 µL for HEK293 and 4,000 per 20 µL for HepG2) with DMEM + 2 % FBS. The compounds were prepared as described below, using DMEM with no FBS instead to give the final FBS concentration of 1 %.
The highest concentration the compounds were tested was 300 µg/mL. A dilution series of 1:3 fold steps in DMEM (GIBCOPInvitrogen, cat. no. 11995P073) + 10 % FBS was created (concentration range of 600 µg/mL – 0.28 µg/mL), and 20 µL of these 2x concentrated compound dilutions were added in duplicates to wells of a black wall, clear bottom 384Pwells cell culture plate. For the assays with 1 % FBS the compounds in 0 % FBS were added to the existing cell plates in 2 % FBS. 200 µM Tamoxifen (Sigma T5648) served as negative control and in addition a serial dilution of tamoxifen, starting at 200 µM (74 µg/mL), was included as a dose response control (1 in 2 dilution series for tamoxifen). For the assay with 10 % FBS, HepG2 cells were seeded at 5000 cells per well, in a volume of 20 µL in DMEM medium + 10 % of FBS and added to the 20 µL of compound solution (total volume of 40 µL), resulting in a final compound concentration range of 300 µg/mL to 0.14 µg/mL.
Cells were incubated together with the compounds for 20 h at 37 °C, 5 % CO2.
After the incubation, 5 µL of 100 µM (25 µg/mL) resazurin dissolved in PBS (final concentration was approximately 11 µM) was added to each well. The plates were then incubated for 3 h at 37 °C, 5 % CO2. The fluorescence intensity was read using the TECAN Infinite M1000 PRO with excitation/emission 560/590. The data was analysed by Graph Pad Prism software. Results are presented as the average percentage of control ± SD for each set of duplicate wells using the following equation: Cell survival % = (FISAMPLE – FINegative/FIUNTREATED –FINegative)*100. (100 µg/mL tamoxifen was set as 0 % survival, media

[2] = system: E. coli ATCC 25922 (control strain); format: cell-based, Escherichia coli; details: ATCC 25922
Method: (§1) Both antibacterial and antifungal MIC assays were performed by a broth microdilution plate based method as per CLSI guidelines for antimicrobial susceptibility testing.[53],[54] […] Full assay details are included in the Supporting Information with a full list of strains tested in Table S1.
(§2) Antibacterial assay (Minimum Inhibitory Concentration [MIC]).
(§3) MIC assay was performed by a broth microdilution plate based method as per CLSI guidelines for antimicrobial susceptibility testing of aerobic bacteria.1 Compounds were prepared at 1.28 mg/mL solution in water. The tested strains, Table S1, were cultured in Luria broth (LB) (In Vitro Technologies, USB75852), at 37 °C overnight. A sample of culture was then diluted 40Pfold in fresh Muller Hinton broth (MHB) (Bacto laboratories, 211443) and incubated at 37 °C for 1.5P2 h. The compounds were serially diluted twoPfold across the wells, with compound concentrations ranging from 0.015 µg/mL to 512 µg/mL, plated in duplicate. The resultant midPlog phase cultures were diluted to the final concentration of 1×10^6 CFU/mL, then 50 µL was added to each well of the compoundP containing 96Pwell plates (Corning 3641, NonPbinding Surface [NBS]), giving a final compound concentration range of 0.008 µg/mL to 256 µg/mL and 5x10^5 CFU/mL. All the plates were covered and incubated at 37 °C for 18 h. MICs were determined visually, being defined as the lowest concentration showing no visible growth. Resazurin was added at 0.001% final concentration to each well and incubated for 2 h before MICs were rePread for confirmation using the colour change from blue to pink to indicate wells containing viable cells. The resazurin assay was added in some wells where some form of precipitate was present in otherwise clear wells, making it difficult to ascertain which wells had visible […]
(§4) Antifungal assay (Minimum Inhibitory Concentration [MIC]). MIC assay was performed by a broth microdilution plate based method as per CLSI guidelines for antimicrobial susceptibility testing.2 Fungi strains, Table S1, were cultured for 3 days on Yeast ExtractPPeptone Dextrose (YPD) (SigmaPAldrich, Y1500) agar at 30 °C. A yeast suspension of 1x10^6 to 5x10^6 CFU/mL was prepared from five colonies. These stock suspensions were diluted with Yeast Nitrogen Base (YNB) (Becton Dickinson, 233520) broth to a final concentration of 2.5 ×10^3 CFU/mL. All samples, compounds and standards were plated in 96Pwell plates (Corning 3641, NonPbinding Surface [NBS]), by adding 10 µL of 1.28 mg/mL stock solution to each well and 90 µL of media. Then, the samples were serial diluted (1:2) in 12 concentrations across the plate. The standard antifungal ranged from 256

[3] = system: E. coli ATCC 700926 (K12); format: cell-based, Escherichia coli; details: ATCC 700926
Method: as §1, §2, §3, §4

[4] = system: human erythrocytes; details: red cells of human, 3 h
[5] = system: E. coli ATCC 25922 cytoplasmic membrane; details: not told
[6] = hemolysis (%) at 300 μg/mL, human erythrocytes, 3 h, relative to 100% hemolysis by 1% Triton X-100
[7] = system: E. coli ATCC 25922 cytoplasmic membrane; assay: Inner membrane permeability measured by SYTOX green fluorescence emission; details: SYTOX green, E. coli ATCC 25922, 1 h
[8] = system: K. pneumoniae ATCC 13883; format: cell-based, Klebsiella pneumoniae; details: ATCC 13883
Method: as §1, §2, §3, §4

[9] = system: P. aeruginosa ATCC 27853; format: cell-based, Pseudomonas aeruginosa; details: ATCC 27853
Method: as §1, §2, §3, §4

[10] = Plasma protein binding, ultrafiltration; format: in vitro ADME; details: 100% human plasma, read-out: PPB (%) (converted)
Method: Plasma protein binding was performed using an ultrafiltration method.[58]
Plasma protein binding assay
Plasma protein binding was performed using an Ultrafiltration method.13 Fresh frozen human plasma was pooled from O Negative (Product number 1274512) blood from the R & D division of the Australian Red Cross Blood Services (Brisbane). Stock solutions (20 mg/mL) of the test compounds were prepared in H2O. Test compounds (40 µg/mL) were incubated in 100 % human plasma at 37 °C for 30 min (1 mL volume). For unfiltered samples, an aliquot (50 µL) was removed, diluted with PBS (50 µL) and quenched with icePcold precipitating solution comprising 0.5 µM carbutamide MS internal standard in acetonitrile : methanol : formic acid (1: 1 : 0.001). Samples were incubated at 4 °C for 30 min then centrifuged at 14000 × g for 8 min, with the clear supernatant transferred to a vial for LC/MS/MS analysis.
For filtered samples, the plasma sample (250 µL) was filtered using Amicon UltraP0.5 Centrifugal Filter Devices 30K NMWL at 14000 × g for 7 min and then an aliquot (50 µL) was processed as described for unfiltered samples. The fraction of unbound compound was calculated by determining the concentration of the filtered sample and the concentration of unfiltered sample. All samples were performed in triplicate with sulfamethoxazole as a […]

[11] = system: B. subtilis ATCC 6051; assay: microbe, parasite or virus in culture; format: cell-based, Bacillus subtilis; details: ATCC 6051
Method: as §1, §2, §3, §4

[12] = system: A. baumannii ATCC 19606; format: cell-based, Acinetobacter baumannii; details: ATCC 19606
Method: as §1, §2, §3, §4

CC(C)C[C@H](NC(=O)[C@H](CCCNC(=N)N)NC(=O)CNC(=O)CNC(=O)[C@@H](N)CCCNC(=N)N)C(=O)N[C@H]1CSSC[C@@H](C(=O)N[C@H](C(=O)NCC(=O)N[C@@H](CCCNC(=N)N)C(N)=O)C(C)C)NC(=O)[C@H](C(C)C)NC(=O)[C@@H]2CSSC[C@H](NC(=O)[C@H](Cc3ccc(O)cc3)NC1=O)C(=O)N[C@@H](CCCNC(=N)N)C(=O)N[C@@H](CCCNC(=N)N)C(=O)N[C@@H](CCCNC(=N)N)C(=O)N[C@@H](Cc1ccccc1)C(=O)N2 [protegrin-1]
CC50 at 24 h ([1]; HEK293 cells, HEK293, 1% FBS, read-out: cytotoxicity HEK293 1% FBS): 19.6 ± 1.2 µg/mL (≈ 9.09 µM)
CC50 at 24 h ([1]; HEK293 cells, HEK293, 10% FBS, read-out: cytotoxicity HEK293 10% FBS): 93.9 ± 1.1 µg/mL (≈ 43.6 µM)
CC50 at 24 h ([1]; HepG2 cells, HepG2, 1% FBS, read-out: cytotoxicity HepG2 1% FBS): 31.4 ± 2 µg/mL (≈ 14.6 µM)
CC50 at 24 h ([1]; HepG2 cells, HepG2, 10% FBS, read-out: cytotoxicity HepG2 10% FBS): 96.1 ± 1.1 µg/mL (≈ 44.6 µM)
MIC [2]: 2 µg/mL (≈ 0.928 µM)
MIC [3]: 0.25 µg/mL (≈ 0.116 µM)
hemolysis (%) at 300 μg/mL [4]: 64.8 ± 3.5%
permeabilization concentration relative to MIC [5]: lower concentration than their MIC
hemolysis [6]: 65%
permeabilisation of the E. coli cytoplasmic membrane at lethal concentrations [7]: permeabilise
MIC [8]: 0.5 µg/mL (≈ 0.232 µM)
MIC [9]: 4 µg/mL (≈ 1.86 µM)
fraction unbound [10]: 0.11
MIC [11]: 0.03 µg/mL (≈ 0.0139 µM)
MIC [12]: 0.25 µg/mL (≈ 0.116 µM)
